Results published in a flash point compilation (Sun et al. 2020).
Values joined by “and” are separate entries in the source; they are usually repeats but may differ in a detail not shown here. Identical values can stand only once. Counter-ions that a name gives are not always drawn.

Compound | flash point
C=CCOC(C)=O [allyl acetate] | 6 °C
C=C(C)c1ccccc1 [alpha-methylstyrene] | 45 °C
O=Cc1ccccc1 [benzaldehyde] | 62 °C
OCc1ccccc1 [benzyl alcohol] | 93 °C
O=C(OCc1ccccc1)c1ccccc1 [benzyl benzoate] | 147 °C
N#CCc1ccccc1 [benzyl cyanide] | 101 °C
CCCCN=C=O [butyl isocyanate] | 29 °C
CCCC(=O)OC(=O)CCC [butyric anhydride] | 87 °C
Clc1ccccc1 [chlorobenzene] | 27 °C
O=CC=Cc1ccccc1 [cinnamaldehyde] | 71 °C
NC1CCCCC1 [cyclohexylamine] | 28 °C
CCNCC [diethylamine] | -26 °C and -23 °C
COC [dimethylether] | -83 °C
CS(C)=O [dimethylsulfoxide] | 88 °C
c1ccc(Cc2ccccc2)cc1 [diphenylmethane] | 127 °C
CC=O [ethanal] | -39 °C
CC(=O)O [ethanoic acid] | 39 °C
C=CC(=O)OCC [ethyl acrylate] | 9 °C
CCCC(=O)OCC [ethyl butyrate] | 19 °C
CCN [ethylamine] | -17 °C
OCc1ccco1 [furfuryl alcohol] | 65 °C
CCCCCCC#N [heptanenitrile] | 58 °C
CC(=O)OCCC(C)C [isopentyl acetate] | 25 °C
CC(=O)OC(C)C [isopropyl acetate] | 2 °C
Clc1cccc(Cl)c1 [m-dichlorobenzene] | 63 °C

The next lines start with the values.

flash point | Compound
56 °C | c1ccc2occc2c1 [benzofuran]
-5 °C | CCCCOCC [butyl ethyl ether]
-6 °C | CCCC=O [butyraldehyde]
6 °C | C[C@H]1CC[C@@H](C)CC1 [cis-1,4-dimethylcyclohexane]
88 °C | C/C=C/C(=O)O [crotonic acid]
-65 °C | C1CCC1 [cyclobutane]
-4 °C | NC1CCC1 [cyclobutylamine]
71 °C | OC1CCCCCC1 [cycloheptanol]
55 °C | O=C1CCCCCC1 [cycloheptanone]
51 °C | OC1CCCC1 [cyclopentanol]
-95 °C | C1CC1 [cyclopropane]
48 °C | CC(C)(C)SC(C)(C)C [di-t-butyl sulfide]
40 °C | CCSSCC [diethyl disulfide]
91 °C | CCOC(=O)/C=C/C(=O)OCC [diethyl fumarate]
117 °C | CCCCOCCOCCOCCCC [diethylene glycol dibutyl ether]
49 °C | CC(C)CC(=O)CC(C)C [diisobutyl ketone]
57 °C | CCCCCOCCCCC [dipentylether]
169 °C | CCCCCCCCCCCCCCCCCCCC [eicosane]
-48 °C | CCS [ethanethiol]
13 °C | CCOC(=O)C(C)C [ethyl isobutyrate]
-45 °C | C=COCC [ethyl vinyl ether]
-15 °C | Fc1ccccc1 [fluorobenzene]
18 °C | C1CCCNCC1 [hexamethyleneimine]
10 °C | CC(C)COC=O [isobutyl formate]
-24 °C | CC(C)C=O [isobutyraldehyde]
55 °C | CC(C)C(=O)O [isobutyric acid]
84 °C | CC1=CC(=O)CC(C)(C)C1 [isophorone]
-29 °C | CC(C)OC(C)C [isopropyl ether]
35 °C | CC(C)C1CCCCC1 [isopropylcyclohexane]
